From patent US8889676B2, “3-ureidoisoquinolin-8-yl derivatives” (Actelion Pharmaceuticals Ltd., priority 2011, dated 2014) come the findings set out here.

The structures appear in SMILES notation. In brackets after ≈: the same amount, converted by molar mass.

For the experiment, the system named is S. pneumoniae ATCC 49619. Briefly: Minimal inhibitory concentration (MIC) by broth microdilution (CLSI M7-A7). It is filed as cell-based, Streptococcus pneumoniae. Particulars: Streptococcus pneumoniae, ATCC49619; cation-adjusted Mueller Hinton Broth supplemented with 3% (v/v) lysed horse blood; microdilution method. How it is done: Minimal inhibitory concentrations (MICs; mg/l) were determined in cation-adjusted MuellerHinton Broth (supplemented with 3% (v/v) lysed horse blood for testing Streptococcus pneumoniae) by a microdilution method following the description given in “Methods for Dilution Antimicrobial Susceptibility Tests for Bacteria that Grow Aerobically”, Approved standard, 7th ed., a Clinical and Laboratory Standards Institute (CLSI) Document M7-A7, Wayne, Pa., USA, 2006.
(Broth dilution looks for growth in wells or tubes with falling amounts of substance.)
The term MIC denotes the lowest concentration that inhibits growth of the organism. Higher therefore signals a need for much substance. As for `C#CC(=O)NCc1ccc(-c2ccncc2)c2cc(NC(=O)NCC)ncc12` [Example 75, propynoic acid [3-(3-ethyl-ureido)-5-pyridin-4-yl-isoquinolin-8-ylmethyl]-amide], the MIC was found to be 0.25 µg/mL (≈ 0.669 µM).

Compound `CCNC(=O)Nc1cc2c(-c3ccncc3)ccc(CNC(=O)OC(C)(C)C)c2cn1` [Example 76, [3-(3-ethyl-ureido)-5-pyridin-4-yl-isoquinolin-8-ylmethyl]-carbamic acid tert-butyl ester] came in with an MIC of 0.25 µg/mL (≈ 0.593 µM).

Compound `CCNC(=O)Nc1cc2c(-c3ccncc3)ccc(CNC(=O)OC(C)C)c2cn1` [Example 77, [3-(3-ethyl-ureido)-5-pyridin-4-yl-isoquinolin-8-ylmethyl]-carbamic acid isopropyl ester] displayed an MIC of 0.5 µg/mL (≈ 1.23 µM).

For `CCNC(=O)Nc1cc2c(-c3ccncc3)ccc(CNC(=O)OCCN(C)C)c2cn1` [Example 78, [3-(3-ethyl-ureido)-5-pyridin-4-yl-isoquinolin-8-ylmethyl]-carbamic acid 2-dimethylamino-ethyl ester], inhibition of growth (MIC) required 4 µg/mL (≈ 9.16 µM).

In the case of `CCNC(=O)Nc1cc2c(-c3ccncc3)ccc(CNC(=O)OC)c2cn1` [Example 79, [3-(3-ethyl-ureido)-5-pyridin-4-yl-isoquinolin-8-ylmethyl]-carbamic acid methyl ester], the lowest concentration to inhibit growth (MIC) was 0.25 µg/mL (≈ 0.659 µM).

As to `CCNC(=O)Nc1cc2c(-c3ccncc3)ccc(CNC(=O)OCCN3CCCC3)c2cn1` [Example 80, [3-(3-ethyl-ureido)-5-pyridin-4-yl-isoquinolin-8-ylmethyl]-carbamic acid 2-pyrrolidin-1-yl-ethyl ester], the lowest concentration to inhibit growth (MIC) was 8 µg/mL (≈ 17.3 µM).

`CCNC(=O)Nc1cc2c(-c3ccncc3)ccc(CNC(=O)OCCNC(=O)OC(C)(C)C)c2cn1` [Example 81, [3-(3-ethyl-ureido)-5-pyridin-4-yl-isoquinolin-8-ylmethyl]-carbamic acid 2-tert-butoxycarbonylamino-ethyl ester] came in with a minimum inhibitory concentration (MIC) of 0.5 µg/mL (≈ 0.983 µM).

`CCNC(=O)Nc1cc2c(-c3ccncc3)ccc(CNC(=O)OCCN(C)C(=O)OC(C)(C)C)c2cn1` [Example 82, tert-butyl (2-((((3-(3-ethylureido)-5-(pyridin-4-yl)isoquinolin-8-yl)methyl)carbamoyl)oxy)ethyl)(methyl)carbamate]: the MIC is 2 µg/mL (≈ 3.83 µM).

In turn, `CCNC(=O)Nc1cc2c(-c3ccncc3)ccc(CNC(=O)OCCN3CCN(C(=O)OC(C)(C)C)CC3)c2cn1` [Example 83, tert-butyl 4-(2-((((3-(3-ethylureido)-5-(pyridin-4-yl)isoquinolin-8-yl)methyl)carbamoyl)oxy)ethyl)piperazine-1-carboxylate] displayed an MIC of 1 µg/mL (≈ 1.73 µM).

As to `CCNC(=O)Nc1cc2c(-c3ccncc3)ccc(CNC(=O)OCC3CC3)c2cn1.Cl` [Example 84, [3-(3-ethyl-ureido)-5-pyridin-4-yl-isoquinolin-8-ylmethyl]-carbamic acid cyclopropylmethyl ester hydrochloride], it took 0.5 µg/mL to inhibit growth (MIC).

Regarding `CCNC(=O)Nc1cc2c(-c3ccncc3)ccc(CNC(=O)OCCCN3CCCC3=O)c2cn1.Cl` [Example 85, [3-(3-ethyl-ureido)-5-pyridin-4-yl-isoquinolin-8-ylmethyl]-carbamic acid 3-(2-oxo-pyrrolidin-1-yl)-propyl ester hydrochloride], the MIC came out at 1 µg/mL.

`CCNC(=O)Nc1cc2c(-c3ccncc3)ccc(CNC(=O)OC[C@@H]3CCC(=O)N3)c2cn1.Cl` [Example 87, (S)-[3-(3-ethyl-ureido)-5-pyridin-4-yl-isoquinolin-8-ylmethyl]-carbamic acid 5-oxo-pyrrolidin-2-ylmethyl ester hydrochloride] gave an MIC of 0.25 µg/mL.

In turn, `CCNC(=O)Nc1cc2c(-c3ccncc3)ccc(CNC(=O)OCc3cncn3C)c2cn1.Cl` [Example 88, [3-(3-ethyl-ureido)-5-pyridin-4-yl-isoquinolin-8-ylmethyl]-carbamic acid 3-methyl-3H-imidazol-4-ylmethyl ester hydrochloride] returned a minimal inhibitory concentration (MIC) of 2 µg/mL.

In the case of `CCNC(=O)Nc1cc2c(-c3ccncc3)ccc(CNC(=O)OCCCN(C)C)c2cn1.Cl` [Example 89, [3-(3-ethyl-ureido)-5-pyridin-4-yl-isoquinolin-8-ylmethyl]-carbamic acid 3-dimethylamino-propyl ester hydrochloride], inhibition of growth (MIC) required 8 µg/mL.

For `CCNC(=O)Nc1cc2c(-c3ccncc3)ccc(CNC(=O)CCCO)c2cn1` [Example 90, N-[3-(3-ethyl-ureido)-5-pyridin-4-yl-isoquinolin-8-ylmethyl]-4-hydroxy-butyramide], the MIC stood at 2 µg/mL (≈ 4.91 µM).

`CCNC(=O)Nc1cc2c(-c3ccncc3)ccc(CNC(=O)OCCN3CCOCC3)c2cn1.Cl` [Example 91, [3-(3-ethyl-ureido)-5-pyridin-4-yl-isoquinolin-8-ylmethyl]-carbamic acid 2-morpholin-4-yl-ethyl ester hydrochloride] displayed an MIC of 1 µg/mL.

For the compound `CCNC(=O)Nc1cc2c(-c3ccncc3)ccc(CNC(=O)OCCCN3CCCCC3)c2cn1.Cl` [Example 92, [3-(3-ethyl-ureido)-5-pyridin-4-yl-isoquinolin-8-ylmethyl]-carbamic acid 3-piperidin-1-yl-propyl ester hydrochloride], the lowest concentration to inhibit growth (MIC) was 4 µg/mL.

In the case of `CCNC(=O)Nc1cc2c(-c3ccncc3)ccc(CNC(=O)OCCN3CCNC3=O)c2cn1.Cl` [Example 93, [3-(3-ethyl-ureido)-5-pyridin-4-yl-isoquinolin-8-ylmethyl]-carbamic acid 2-(2-oxo-imidazolidin-1-yl)-ethyl ester hydrochloride], the MIC was found to be 8 µg/mL.

`CCNC(=O)Nc1cc2c(-c3ccncc3)ccc(CNC(=O)OCCCOC)c2cn1.Cl` [Example 94, [3-(3-ethyl-ureido)-5-pyridin-4-yl-isoquinolin-8-ylmethyl]-carbamic acid 3-methoxy-propyl ester hydrochloride] showed an MIC of 0.5 µg/mL.

In turn, `CCNC(=O)Nc1cc2c(-c3ccncc3)ccc(CNC(=O)CCCOC)c2cn1` [Example 95, N-[3-(3-ethyl-ureido)-5-pyridin-4-yl-isoquinolin-8-ylmethyl]-4-methoxy-butyramide] registered an MIC of 0.5 µg/mL (≈ 1.19 µM).

Compound `CCNC(=O)Nc1cc2c(-c3ccncc3)ccc(CNC(=O)OCC(N)=O)c2cn1.Cl` [Example 96, [3-(3-ethyl-ureido)-5-pyridin-4-yl-isoquinolin-8-ylmethyl]-carbamic acid carbamoylmethyl ester hydrochloride] came in with a minimal inhibitory concentration (MIC) of 2 µg/mL.

`CCNC(=O)Nc1cc2c(-c3ccncc3)ccc(CNC(=O)OCCN3C(=O)CCC3=O)c2cn1.Cl` [Example 97, [3-(3-ethyl-ureido)-5-pyridin-4-yl-isoquinolin-8-ylmethyl]-carbamic acid 2-(2,5-dioxo-pyrrolidin-1-yl)-ethyl ester hydrochloride]: the MIC was 2 µg/mL.

Regarding `CCNC(=O)Nc1cc2c(-c3ccncc3)ccc(CNC(=O)OCCN3CCCCC3)c2cn1.Cl` [Example 98, [3-(3-ethyl-ureido)-5-pyridin-4-yl-isoquinolin-8-ylmethyl]-carbamic acid 2-piperidin-1-yl-ethyl ester hydrochloride], the minimum inhibitory concentration (MIC) worked out at 4 µg/mL.

`CCNC(=O)Nc1cc2c(-c3ccncc3)ccc(CNC(=O)OCC(C)C)c2cn1.Cl` [Example 99, [3-(3-ethyl-ureido)-5-pyridin-4-yl-isoquinolin-8-ylmethyl]-carbamic acid isobutyl ester hydrochloride] had a minimum inhibitory concentration (MIC) of 0.5 µg/mL.

Compound `CCNC(=O)Nc1cc2c(-c3ccncc3)ccc(CNC(=O)OCC[C@H]3CCCNC3)c2cn1.Cl` [Example 100, [3-(3-ethyl-ureido)-5-pyridin-4-yl-isoquinolin-8-ylmethyl]-carbamic acid (R)-2-piperidin-3-yl-ethyl ester hydrochloride] registered an MIC of 8 µg/mL.

`CCNC(=O)Nc1cc2c(-c3ccncc3)ccc(CNC(=O)OC[C@H]3CC[C@H](CN)CC3)c2cn1.Cl` [Example 101, trans-[3-(3-ethyl-ureido)-5-pyridin-4-yl-isoquinolin-8-ylmethyl]-carbamic acid 4-(aminomethyl)-(cyclohexylmethyl) ester hydrochloride] came in with an MIC of 2 µg/mL.

Consider `CCNC(=O)Nc1cc2c(-c3ccncc3)ccc(CNC(=O)OCC[C@@H](O)CO)c2cn1.Cl` [Example 102, (R)-[3-(3-ethyl-ureido)-5-pyridin-4-yl-isoquinolin-8-ylmethyl]-carbamic acid 3,4-dihydroxy-butyl ester hydrochloride], for which it took 1 µg/mL to inhibit growth (MIC).

Take `CCNC(=O)Nc1cc2c(-c3ccncc3)ccc(CNC(=O)OCCC(=O)O)c2cn1` [Example 104, 3-((((3-(3-ethylureido)-5-(pyridin-4-yl)isoquinolin-8-yl)methyl)carbamoyl)oxy)propanoic acid]: the MIC came out at 8 µg/mL (≈ 18.3 µM).

Turning to `CCNC(=O)Nc1cc2c(-c3ccncc3)ccc(CNC(=O)OCCC(=O)OC)c2cn1.Cl` [Example 105, methyl 3-((((3-(3-ethylureido)-5-(pyridin-4-yl)isoquinolin-8-yl)methyl)carbamoyl)oxy)propanoate hydrochloride], the MIC was determined as 4 µg/mL.

With `CCNC(=O)Nc1cc2c(-c3ccncc3)ccc(CNC(=O)OCC#CCO)c2cn1` [Example 106, [3-(3-ethyl-ureido)-5-pyridin-4-yl-isoquinolin-8-ylmethyl]-carbamic acid 4-hydroxy-but-2-ynyl ester], the MIC stood at 0.25 µg/mL (≈ 0.577 µM).

`CCNC(=O)Nc1cc2c(-c3ccncc3)ccc(CNC(=O)OCCO)c2cn1` [Example 107, [3-(3-ethyl-ureido)-5-pyridin-4-yl-isoquinolin-8-ylmethyl]-carbamic acid 2-hydroxy-ethyl ester] displayed a minimum inhibitory concentration (MIC) of 1 µg/mL (≈ 2.44 µM).

Take `CCNC(=O)Nc1cc2c(-c3ccncc3)ccc(CNC(=O)OCC#CCN)c2cn1` [Example 109, [3-(3-ethyl-ureido)-5-pyridin-4-yl-isoquinolin-8-ylmethyl]-carbamic acid 4-amino-but-2-ynyl ester]: inhibition of growth (MIC) required 2 µg/mL (≈ 4.62 µM).
